Values quoted from earlier work in article PMC6764291 (Frontiers in Oncology, 2019).

Legend:
p53 = system: p53; set-up: method as in PMID 14704432; conditions: cited from earlier work
mutant p53 cells = conditions: in vitro, considerably higher concentrations than required for wt p53 cell lines; cited from earlier work
Text: As expected, the two p53 mutated cell lines did n ...

Compound	p53-expression (p53)	effect on mutant p53 cells (mutant p53 cells)
COc1ccc(C2=N[C@@H](c3ccc(Cl)cc3)[C@@H](c3ccc(Cl)cc3)N2C(=O)N2CCNC(=O)C2)c(OC(C)C)c1 [Nutlin-3]	increased p53-expression was directly correlated to increasing concentrations	
COc1ccc(C2=N[C@H](c3ccc(Cl)cc3)[C@H](c3ccc(Cl)cc3)N2C(=O)N2CCN(C(C)=O)CC2)c(OC(C)C)c1 [Nutlin-1]		Some effect
